Source: US20180243345A1, “METHOD FOR INCREASING MUSCLE GROWTH USING KRILL EXTRACT” (AVOCA, INC., priority 2015, published 2018)

Tested on: mTOR signaling
Test: mTOR signaling in C2C12 myoblasts (Western blot, ratio of P-p70-389 to total p70)
Assay type: cell-based
Settings: for change in ratio of P-p70-389 to total p70 (mTOR signaling) compared to vehicle/control, in words / mTOR signaling compared with another stimulant, in words: 10 or 30 μM, 20 minutes; for mTOR signaling (ratio of P-p70-389 to total p70): 20 minutes stimulation, compared to vehicle
Procedure: C2C12 myoblasts were plated at approximately 30% confluence and grown for 24 hours in 10% FBS High Glucose DMEM with antibiotics (100m/ml streptomycin and 100 U/ml penicillin; Sigma). At 16 hours prior to the experiment, myoblasts cells were switched to serum free high glucose DMEM (no antibiotics) and were approximately 70% confluent at the time of the experiment. All stimulants were dissolved in chloroform to yield a concentration of 10 mg/mL, with the exception of DAG which was dissolved at 2 mg/mL and G3P which was dissolved at 6 mg/mL. […] Accordingly, cells were stimulated for 20 minutes with vehicle (Control; 100 μL of PBS) 10 or 30 μM of RIMFROST Sublime Krill Oil Extract (Rimfrost USA, Inc, Merry Hill, N.C.), soy-derived (S) phosphatidylserine (S-PS), phosphatidylinositol (S-PI), phosphatidylethanolamine (S-PE), phosphatidylcholine (S-PC), phosphatidic acid (S-PA), lysophosphatidic acid (S-LPA), diacylglycerol (DAG), glycerol-3-phosphate (G3P), or egg-derived PA (E-PA). Cells were then harvested in lysis buffer (40 mM Tris, pH 7.5; 1 mM EDTA; 5 mM EGTA; 0.5% Triton X-100; 25 mM (3-glycerophosphate; 25 mM NaF; 1 mM Na3VO4; 10 μg/mL leupeptin; and 1 mM PMSF) and subjected to immunoblotting as previously described. The ratio of P-p70-389 to total p70 was used as readout for mTOR signaling. As used in the Examples disclosed herein, 10 μM of RIMFROST Sublime Krill Oil Extract contains 0.01253 μM PS, which is 0.6% of the phospholipid content; and 30 μM of RIMFROST Sublime Krill Oil Extract contains 0.0376 μM PS, which is 0.6% of the phospholipid content.
The data was analyzed using a one way analysis of variance (ANOVA). A Tukey's Multiple Comparison Test was used to determine significant differences between treatments. Significance was set at P<0.05. Statistical analyses were performed on SigmaStat software (San Jose, Calif., USA).
In accordance with the materials and methods described above, krill extract, S-PC, S-PS, and S-PA were tested for their ability to activate mTOR signaling. […] The samples were then subjected to Western blot analysis for p70S6K phosphorylation on the threonine 389 residue (p′70-389) and total p70. The ratio of these signals was calculated and used as a marker of mTOR signaling.

| Molecule | change in ratio of P-p70-389 to total p70 (mTOR signaling) compared to vehicle/control, in words | mTOR signaling (ratio of P-p70-389 to total p70) (taken as 10 μM) [%] | mTOR signaling (ratio of P-p70-389 to total p70) (taken as 30 μM) [%] | mTOR signaling compared with another stimulant, in words |
| --- | --- | --- | --- | --- |
| phosphatidylcholine [S-PC] | no increase |  |  |  |
| O=P(O)(O)OCC(O)CO (stereo not drawn) [G3P, glycerol-3-phosphate] | no increase |  |  |  |
| phosphatidic acid [E-PA] |  | 206 | 221 |  |
| lysophosphatidic acid [S-LPA] |  | 638 | 694 | to a greater degree than did E-PA |
| phosphatidylserine [S-PS] |  | 529 | 558 |  |
| phosphatidylinositol [S-PI] | no increase |  |  |  |
| phosphatidylethanolamine [S-PE] | no increase |  |  |  |
| diacylglycerol [DAG] | no increase |  |  |  |
| phosphatidic acid [S-PA] |  | 658 | 636 | to a greater degree than did E-PA |
